# Active and inactive are the calls of the source. The rule behind the calls is not given here.
# Assays:
# [1] = tested on: Mus musculus; test: Anti-diabesity activity in DIO C57BL/6 mouse assessed as decrease in fasted blood glucose level at 100 nmol/kg, sc administered once daily for 7 days; format: functional, organism-based; settings: time 7.0 day
# [2] = Cmax in Sprague-Dawley rat at 25 nmol/kg, iv by LC-MS/MS analysis; format: ADME, organism-based; parameters: dose 25 nmol/kg, route iv; settings: in vivo
# [3] = AUC (0 to infinity) in Sprague-Dawley rat at 25 nmol/kg, iv by LC-MS/MS analysis; format: ADME, organism-based; parameters: time infinity, dose 25 nmol/kg, route iv; settings: in vivo
# [4] = MRT in Sprague-Dawley rat at 25 nmol/kg, sc by LC-MS/MS analysis; format: ADME, organism-based; settings: in vivo
# [5] = AUC (0 to infinity) in Sprague-Dawley rat at 25 nmol/kg, sc by LC-MS/MS analysis; format: ADME, organism-based; parameters: time infinity, dose 25 nmol/kg, route sc; settings: in vivo
# [6] = tested on: Mus musculus; test: Anorectic activity in ICR mouse assessed as decrease in food intake at 25 nmol/kg, ip and measured after 9 hrs; format: functional, organism-based
# [7] = tested on: Mus musculus; test: Hypoglycemic activity in db/db mouse assessed as reduction in glucose excursion at 25 nmol/kg, ip administered 30 min before oral glucose administration and measured upto 120 mins by OGTT; format: functional, organism-based
# [8] = tested on: Mus musculus; test: Insulinotropic activity in db/db mouse assessed as elevation of plasma insulin level at 25 nmol/kg, ip administered 30 min before oral glucose administration and measured upto 60 mins by ELISA; format: functional, organism-based; settings: time <= 90.0 min
# [9] = tested on: Mus musculus; test: Hypoglycemic activity in sc dosed non-fasted db/db mouse assessed as reduction in blood glucose level measured upto 48 hrs; format: functional, organism-based; settings: dose 10-100 nmol/kg, DDE = dose-dependent effect
# [10] = tested on: Mus musculus; test: Anti-diabesity activity in DIO C57BL/6 mouse assessed as improvement in insulin sensitivity at 25 nmol/kg, sc administered every 2 days for 10 days by insulin tolerance test; format: functional, organism-based; settings: time 10.0 day
# [11] = tested on: Mus musculus; test: Anti-diabesity activity in DIO C57BL/6 mouse assessed as reduction in cumulative food intake at 100 nmol/kg, sc administered once daily for 7 days; format: functional, organism-based; settings: time 7.0 day
# [12] = Renal toxicity in DIO C57BL/6 mouse assessed as blood urea nitrogen level at 100 nmol/kg, sc administered once daily for 7 days; format: organism-based; settings: in vivo, 168 h, time 7 day
# [13] = Hepatotoxicity in DIO C57BL/6 mouse assessed as aspartate aminotransferase level in plasma at 100 nmol/kg, sc administered once daily for 7 days; format: toxicity, organism-based; settings: in vivo, 168 h, time 7 day
# [14] = tested on: Mus musculus; test: Anti-diabesity activity against DIO C57BL/6 mouse assessed as reduction in body weight at 25 nmol/kg, sc administered every 2 days for 3 weeks; format: functional; settings: C57BL/6, 504 h, time 21 day
# [15] = tested on: Mus musculus; test: Anti-diabesity activity against DIO C57BL/6 mouse assessed as reduction in fasted blood glucose level at 25 nmol/kg, sc administered every 2 days for 3 weeks; format: functional, organism-based; settings: time 21.0 day
# [16] = tested on: Mus musculus; test: Anti-diabesity activity against DIO C57BL/6 mouse assessed as reduction in triglycerides level in serum at 25 nmol/kg, sc administered every 2 days for 3 weeks; format: functional, organism-based; settings: time 21.0 day
# [17] = tested on: Mus musculus; test: Anti-diabesity activity against db/db mouse assessed as reduction in body weight at 25 nmol/kg, sc administered every 2 days for 3 weeks; format: functional, organism-based; settings: time 21.0 day
# [18] = tested on: Mus musculus; test: Anti-diabesity activity against db/db mouse assessed as reduction in fasted blood glucose level at 25 nmol/kg, sc administered every 2 days for 3 weeks; format: functional, organism-based; settings: time 21.0 day
# [19] = tested on: Mus musculus; test: Anti-diabesity activity against db/db mouse assessed as increase in islet area at 25 nmol/kg, sc administered every 2 days for 3 weeks by H and E staining based analysis; format: functional, organism-based; settings: time 21.0 day
# [20] = tested on: Mus musculus; test: Anti-diabesity activity against db/db mouse assessed as increase in islet number at 25 nmol/kg, sc administered every 2 days for 3 weeks by H and E staining based analysis; format: functional, organism-based; settings: time 21.0 day
# [21] = tested on: Mus musculus; test: Anti-diabesity activity against db/db mouse assessed as enhanced islets insulin content at 25 nmol/kg, sc administered every 2 days for 3 weeks by immunohistochemistry staining; format: functional, organism-based; settings: time 21.0 day
# [22] = tested on: Mus musculus; test: Anti-diabesity activity in db/db mouse assessed as improvement in glucose tolerance at 25 nmol/kg, ip pretreated for 15 mins with CCK-1R antagonist, Lorglumide followed by compound administration and 15 mins later treated with oral glucose and measured upto 120 mins by OGTT; format: functional, organism-based; settings: time 135.0 min
# [23] = tested on: Mus musculus; test: Anti-diabesity activity in db/db mouse assessed as decrease in cumulative food intake at 100 nmol/kg, sc administered once daily for 7 days; format: functional, organism-based; settings: time 7.0 day
# [24] = Pancreatic insult activity in DIO C57BL/6 mouse assessed as increase in amylase level in plasma at 100 nmol/kg, sc administered once daily for 7 days; format: toxicity, organism-based; settings: in vivo, 168 h, time 7 day
# [25] = Renal toxicity in db/db mouse assessed as creatinine level in serum at 100 nmol/kg, sc administered once daily for 7 days; format: organism-based; settings: in vivo, 168 h, time 7 day
# [26] = Renal toxicity in db/db mouse assessed as blood urea nitrogen level at 100 nmol/kg, sc administered once daily for 7 days; format: organism-based; settings: in vivo, 168 h, time 7 day
# [27] = Pancreatic insult activity in db/db mouse assessed as increase in lipase level in plasma at 100 nmol/kg, sc administered once daily for 7 days; format: toxicity, organism-based; settings: in vivo, 168 h, time 7 day
# [28] = tested on: Rattus norvegicus; test: Anorectic activity in Sprague-Dawley rat assessed as reduction in food intake at 25 nmol/kg,ip measured after 24 hrs; format: functional
# [29] = tested on: Mus musculus; test: Anti-diabesity activity against DIO C57BL/6 mouse assessed as reduction in leptin level in plasma at 25 nmol/kg, sc administered every 2 days for 3 weeks by ELISA; format: functional, organism-based; settings: time 21.0 day
# [30] = Hepatotoxicity in DIO C57BL/6 mouse assessed as alanine aminotransferase level in serum at 25 nmol/kg, sc administered every 2 days for 3 weeks; format: toxicity, organism-based; settings: in vivo, 504 h, time 21 day
# [31] = Pancreatic insult activity in DIO C57BL/6 mouse assessed as amylase level in serum at 25 nmol/kg, sc administered every 2 days for 3 weeks; format: toxicity, organism-based; settings: in vivo, 504 h, time 21 day
# [32] = tested on: Mus musculus; test: Anti-diabesity activity against db/db mouse assessed as reduction in fasting blood glucose level at 25 nmol/kg, sc administered every 2 days for 6 weeks followed by saline treatment for 6 weeks and measured during second 6 weeks; format: functional, organism-based
# [33] = tested on: Mus musculus; test: Anti-diabesity activity against db/db mouse assessed as reduction in HbA1c level at 25 nmol/kg, sc administered every 2 days for 6 weeks followed by saline treatment for 6 weeks and measured during first 6 weeks; format: functional, organism-based
# [34] = tested on: Mus musculus; test: Anti-diabesity activity against db/db mouse assessed as reduction in HbA1c level at 25 nmol/kg, sc administered every 2 days for 6 weeks followed by saline treatment for 6 weeks and measured during second 6 weeks; format: functional, organism-based
# [35] = tested on: Mus musculus; test: Anti-diabesity activity against db/db mouse assessed as increase in pancreas mass at 25 nmol/kg, sc administered every 2 days for 12 weeks; format: functional, organism-based
# [36] = tested on: Mus musculus; test: Anti-diabesity activity against db/db mouse assessed as increase in IOD of insulin in pancreas at 25 nmol/kg, sc administered every 2 days for 12 weeks by immunohistochemistry; format: functional, organism-based
# [37] = Hepatotoxicity in db/db mouse assessed as aspartate aminotransferase level in plasma at 25 nmol/kg, sc administered every 2 days for 12 weeks; format: toxicity, organism-based; settings: in vivo, 2016 h
# [38] = Renal toxicity in db/db mouse assessed as creatinine level in serum at 25 nmol/kg, sc administered every 2 days for 12 weeks; format: organism-based; settings: in vivo, 2016 h
# [39] = Pancreatic insult activity in db/db mouse assessed as increase in lipase level in serum at 25 nmol/kg, sc administered every 2 days for 12 weeks; format: toxicity, organism-based; settings: in vivo, 2016 h
Structure (SMILES),Activity [1],Cmax [2] [ng/mL],AUC(0-inf) [3] [ng·h/mL],MRT [4] [h],AUC(0-inf) [5] [ng·h/mL],Activity [6],Activity [7],Activity [8],Activity [9],Activity [10],Activity [11],Activity [12],Activity [13],inhibition in vivo at 0.025 µmol/kg [14] [%],Activity [15],Activity [16],Activity [17],Activity [18],Activity [19],Activity [20],also measured
CCCC[C@H](NC(=O)[C@H](Cc1ccc(CS(=O)(=O)O)cc1)NC(=O)[C@H](CC(=O)O)NC(=O)COCCOCCNC(=O)COCCOCCNC(=O)[C@H](CCCNC(=N)N)NC(=O)CNC(=O)[C@H](CCCCN)NC(=O)[C@@H](NC(=O)[C@H](CC(C)C)NC(=O)[C@H](Cc1c[nH]c2ccccc12)NC(=O)[C@H](C)NC(=O)[C@@H](NC(=O)[C@H](Cc1ccccc1)NC(=O)[C@H](CCC(=O)O)NC(=O)[C@H](CCCCNC(=O)COCCOCCNC(=O)COCCOCCNC(=O)CC[C@H](NC(=O)CCCCCCCCCCCCCCCCC(=O)O)C(=O)O)NC(=O)[C@H](C)NC(=O)[C@H](C)NC(=O)[C@H](CCC(N)=O)NC(=O)CNC(=O)[C@H](CCC(=O)O)NC(=O)[C@H](CC(C)C)NC(=O)[C@H](Cc1ccc(O)cc1)NC(=O)[C@H](CO)NC(=O)[C@H](CO)NC(=O)[C@@H](NC(=O)[C@H](CC(=O)O)NC(=O)[C@H](CO)NC(=O)[C@@H](NC(=O)[C@H](Cc1ccccc1)NC(=O)[C@@H](NC(=O)CNC(=O)[C@H](CCC(=O)O)NC(=O)[C@H](C)NC(=O)[C@@H](N)Cc1cnc[nH]1)[C@@H](C)O)[C@@H](C)O)C(C)C)[C@@H](C)CC)C(C)C)C(=O)NCC(=O)N[C@@H](Cc1c[nH]c2ccccc12)C(=O)N[C@@H](CCCC)C(=O)N(C)[C@H](CC(=O)O)C(=O)N(C)[C@@H](Cc1ccccc1)C(N)=O,Active,1680,6050,14.7,5510,Active,Active,Active,Dde,Active,Active,Non-Toxic,Non-Toxic,27.3,Active,Active,Active,Active,Active,Active,Activity [21]: Active; Activity [22]: Active; Activity [23]: Active; Activity [24]: Non-Toxic; Activity [25]: Non-Toxic; Activity [26]: Non-Toxic; Activity [27]: Non-Toxic; inhibition in vivo at 0.025 µmol/kg [28]: 28%; Activity [29]: Active; Activity [30]: Non-Toxic; Activity [31]: Non-Toxic; Activity [32]: Active; Activity [33]: Active; Activity [34]: Active; Activity [35]: Active; Activity [36]: Active; Activity [37]: Non-Toxic; Activity [38]: Non-Toxic; Activity [39]: Toxic
CCCC[C@H](NC(=O)[C@H](Cc1ccc(CS(=O)(=O)O)cc1)NC(=O)[C@H](CC(=O)O)NC(=O)COCCOCCNC(=O)COCCOCCNC(=O)[C@H](CCCCN)NC(=O)CNC(=O)[C@H](CCCCN)NC(=O)[C@@H](NC(=O)[C@H](CC(C)C)NC(=O)[C@H](Cc1c[nH]c2ccccc12)NC(=O)[C@H](CCC(=O)O)NC(=O)[C@@H](NC(=O)[C@H](Cc1ccccc1)NC(=O)[C@H](CCC(=O)O)NC(=O)[C@H](CCCCNC(=O)COCCOCCNC(=O)COCCOCCNC(=O)CC[C@H](NC(=O)CCCCCCCCCCCCCCCCC(=O)O)C(=O)O)NC(=O)[C@H](C)NC(=O)[C@H](C)NC(=O)[C@H](CCC(=O)O)NC(=O)[C@H](CCC(=O)O)NC(=O)[C@H](CCC(=O)O)NC(=O)[C@H](CC(C)C)NC(=O)[C@@H](NC(=O)[C@H](CCC(=O)O)NC(=O)[C@@H](NC(=O)[C@@H](NC(=O)[C@H](CC(=O)O)NC(=O)[C@H](CC(N)=O)NC(=O)[C@@H](NC(=O)[C@H](Cc1ccc(O)cc1)NC(=O)[C@@H](NC(=O)CNC(=O)[C@H](CCC(=O)O)NC(=O)C(C)(C)NC(=O)[C@@H](N)Cc1cnc[nH]1)[C@@H](C)O)[C@@H](C)O)C(C)C)[C@@H](C)O)[C@@H](C)O)[C@@H](C)CC)[C@@H](C)CC)C(=O)NCC(=O)N[C@@H](Cc1c[nH]c2ccccc12)C(=O)N[C@@H](CCCC)C(=O)N(C)[C@H](CC(=O)O)C(=O)N(C)[C@@H](Cc1ccccc1)C(N)=O,Active,1660,17600,25.9,15200,Active,Active,Active,Dde,Active,Active,Non-Toxic,Non-Toxic,29.8,Active,Active,Active,Active,Active,Active,Activity [21]: Active; Activity [22]: Active; Activity [23]: Active; Activity [24]: Non-Toxic; Activity [25]: Non-Toxic; Activity [26]: Non-Toxic; Activity [27]: Non-Toxic; inhibition in vivo at 0.025 µmol/kg [28]: 33%; Activity [29]: Active; Activity [30]: Non-Toxic; Activity [31]: Non-Toxic; Activity [32]: Active; Activity [33]: Active; Activity [34]: Active; Activity [35]: Active; Activity [36]: Active; Activity [37]: Non-Toxic; Activity [38]: Non-Toxic; Activity [39]: Toxic

# From ChEMBL document CHEMBL5143608, “Peptide-based long-acting co-agonists of GLP-1 and cholecystokinin 1 receptors as novel anti-diabesity agents” (Eur J Med Chem, 2022)
